Where two headings read alike, the source gives them in different places.
Assays:
[1] = target: T1, BSA (Bos taurus, UniProt P02769); parameters: Intact protein LC/MS covalent labelling, fragments in pools of five, 200 uM each, 4 °C; settings: 24 h, 4 °C, pool of five; 200 µM; covalent
T1 construct: gene ALB

[2] = target: T2, NUDT7 (Homo sapiens, UniProt P0C024); parameters: Intact protein LC/MS covalent labelling, fragments in pools of five, 200 uM each, 4 °C; settings: 24 h, 4 °C, pool of five; 200 µM; covalent
T2 construct: residues 14-235, E. coli, pNIC28-Bsa4, N-terminal His6 tag removed by TEV, construct 26672 Da
T2 sequence (P0C024 14-235): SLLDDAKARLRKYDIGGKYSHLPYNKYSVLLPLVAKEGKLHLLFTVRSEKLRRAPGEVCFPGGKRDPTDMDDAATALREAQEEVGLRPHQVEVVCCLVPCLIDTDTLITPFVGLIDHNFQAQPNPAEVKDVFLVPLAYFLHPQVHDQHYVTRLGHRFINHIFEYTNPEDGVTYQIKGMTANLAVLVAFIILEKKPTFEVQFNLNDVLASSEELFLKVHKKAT

[3] = target: T3, OTUB2 (OTUB2A) (Homo sapiens, UniProt Q96DC9); parameters: Intact protein LC/MS covalent labelling, fragments in pools of five, 200 uM each, 4 °C; settings: 24 h, 4 °C, pool of five; 200 µM; covalent
T3 construct: full length residues 1-234, E. coli BL21(DE3)-R3, His tag removed by TEV, construct 27312 Da
T3 sequence (Q96DC9 1-234): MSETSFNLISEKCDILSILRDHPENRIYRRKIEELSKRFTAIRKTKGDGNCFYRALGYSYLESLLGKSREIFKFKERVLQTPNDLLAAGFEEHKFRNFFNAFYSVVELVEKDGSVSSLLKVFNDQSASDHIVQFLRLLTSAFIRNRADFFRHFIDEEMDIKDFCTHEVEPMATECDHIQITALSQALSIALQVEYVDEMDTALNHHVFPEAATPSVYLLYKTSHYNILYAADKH

[4] = target: T4, PCAF (Homo sapiens, UniProt Q92831); parameters: Intact protein LC/MS covalent labelling, fragments in pools of five, 200 uM each, 4 °C; settings: 24 h, 4 °C, pool of five; 200 µM; covalent
T4 construct: gene KAT2B
T4 sequence (Q92831 whole entry, the tested form may be a part): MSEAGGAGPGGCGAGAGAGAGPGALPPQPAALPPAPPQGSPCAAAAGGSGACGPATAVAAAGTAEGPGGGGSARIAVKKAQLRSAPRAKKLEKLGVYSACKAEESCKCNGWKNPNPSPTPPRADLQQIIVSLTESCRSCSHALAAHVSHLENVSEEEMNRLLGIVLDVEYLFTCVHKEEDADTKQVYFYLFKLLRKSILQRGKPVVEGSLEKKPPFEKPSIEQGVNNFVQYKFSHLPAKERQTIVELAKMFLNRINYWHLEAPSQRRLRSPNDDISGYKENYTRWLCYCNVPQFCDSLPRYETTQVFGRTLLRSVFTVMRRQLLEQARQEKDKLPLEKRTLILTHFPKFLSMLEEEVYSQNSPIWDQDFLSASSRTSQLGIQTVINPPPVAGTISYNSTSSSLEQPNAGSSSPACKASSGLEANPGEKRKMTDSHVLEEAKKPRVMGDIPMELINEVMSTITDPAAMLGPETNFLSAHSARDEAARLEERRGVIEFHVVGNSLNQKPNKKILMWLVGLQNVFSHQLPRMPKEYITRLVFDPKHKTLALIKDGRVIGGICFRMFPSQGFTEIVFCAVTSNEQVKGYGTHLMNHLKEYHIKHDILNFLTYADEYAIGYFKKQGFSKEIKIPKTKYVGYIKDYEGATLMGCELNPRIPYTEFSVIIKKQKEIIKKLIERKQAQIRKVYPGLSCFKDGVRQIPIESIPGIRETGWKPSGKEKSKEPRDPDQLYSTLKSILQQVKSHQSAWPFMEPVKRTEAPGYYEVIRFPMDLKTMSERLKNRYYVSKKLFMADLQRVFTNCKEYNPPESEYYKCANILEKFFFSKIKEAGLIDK

[5] = in vitro; parameters: species or system CCD841, HEK293; settings: human, hb2 cells, read-out: HB-2 Cells Viability (%)
[6] = in vitro; parameters: species or system HB2, HEK293; settings: human, ccd841 cells
[7] = in vitro; parameters: species or system HB2, CCD841; settings: human, hek293 cells

T1 sequence (P02769 whole entry, the tested form may be a part): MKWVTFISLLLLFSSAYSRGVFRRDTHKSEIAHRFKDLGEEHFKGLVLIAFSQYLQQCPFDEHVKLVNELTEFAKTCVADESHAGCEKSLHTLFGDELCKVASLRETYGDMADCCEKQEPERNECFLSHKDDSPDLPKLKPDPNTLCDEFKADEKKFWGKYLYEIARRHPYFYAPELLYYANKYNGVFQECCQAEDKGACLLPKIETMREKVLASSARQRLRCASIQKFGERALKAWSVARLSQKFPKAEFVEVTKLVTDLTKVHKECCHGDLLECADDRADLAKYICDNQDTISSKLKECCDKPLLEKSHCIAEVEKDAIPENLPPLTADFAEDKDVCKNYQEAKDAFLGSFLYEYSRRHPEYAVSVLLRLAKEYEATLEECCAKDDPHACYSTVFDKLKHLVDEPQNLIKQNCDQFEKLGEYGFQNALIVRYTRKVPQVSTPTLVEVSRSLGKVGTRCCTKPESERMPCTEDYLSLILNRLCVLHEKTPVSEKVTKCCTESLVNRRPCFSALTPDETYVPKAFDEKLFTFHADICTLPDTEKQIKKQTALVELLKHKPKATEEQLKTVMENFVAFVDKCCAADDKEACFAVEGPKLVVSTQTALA

SMILES | BSA [1] | NUDT7 [2] | OTUB2 [3] | PCAF [4] | viability at 48 h, 10 µM [5] [%] | viability at 48 h, 10 µM [6] [%] | viability at 48 h, 10 µM [7] [%]
O=C(CCl)Nc1cccc(C(=O)O)c1 [PCM-0102696] | 0 | 0 | 0.11 | 0 | 90.3 | 86.9 | 84.6
CC1CC(=O)Nc2ccccc2N1C(=O)CCl (centres unmarked) [PCM-0102697] | 0 | 0.22 | 0 | 0 | 83.7 | 62.6 | 52.8
O=C(CCl)Nc1nc2ccccc2s1 [PCM-0102698] | 0 | 0.83 | 0.07 | 0 | 64.2 | 77.5 | 65.6
Cc1cc(NC(=O)CCl)n(-c2ccccc2C)n1 [PCM-0102699] | 0 | 0 | 0 | 0 | 58.9 | 81.6 | 36.9
N#Cc1ccc(Cl)cc1NC(=O)CCl [PCM-0102700] | 0 | 0.4 | 0.17 | 0 | 57.6 | 68.1 | 64.8
C=CC(=O)N1CCC(S(=O)(=O)N2CCCC2)C1 (centres unmarked) [PCM-0102701] | 0.12 | 0 | 0 | 0 | 97.8 | 95.6 | 85.2
CCCNC(=O)NC(=O)CCl [PCM-0102702] | 0 | 0 | 0.22 | 0 | 91.6 | 91.6 | 82.9
CN(C(=O)CCl)C1CCCc2ccccc21 (centres unmarked) [PCM-0102703] | 0 | 0.3 | 0 | 0 | 6.6 | 25.8 | 5.8
O=C(CCl)N1CCN(S(=O)(=O)c2ccc(Cl)cc2)CC1 [PCM-0102704] | 0 | 0.25 | 0 | 0 | 2.5 | 18.8 | 2.7
O=C(CCl)N1CCc2cc(S(=O)(=O)N3CCCCC3)ccc21 [PCM-0102705] | 0 | 0 | 0 | 0 | 4.2 | 28.8 | 51.1
O=C(CCl)NCC12CC3CC(CC(C3)C1)C2 [PCM-0102706] | 0 | 0 | 0.65 | 0 | 61.3 | 76.1 | 40.8
C=CCNC(=O)NC(=O)CCl [PCM-0102709] | 0 | 0 | 0 | 0 | 90 | 77.7 | 75.3
CC(c1ccccc1)N1CCN(C(=O)CCl)CC1.Cl (centres unmarked) [PCM-0102710] | 0 | 0 | 0.12 | 0 | 36.7 | 72.5 | 41.3
O=C(CCl)NC(=O)c1ccc(Cl)cc1 [PCM-0102711] | 0 | 0 | 0 | 0 | 98.9 | 96.8 | 103
C=CC(=O)NCC1COc2ccccc2O1 (centres unmarked) [PCM-0102713] | 0 | 0.16 | 0 | 0 | 99 | 102 | 76.1
C=CC(=O)N1CCN(c2nccc3sccc23)CC1 [PCM-0102715] | 0 | 0 | 0 | 0 | 97.2 | 92.1 | 78.2
C=CC(=O)NCC1CCCS1 (centres unmarked) [PCM-0102719] | 0 | 0 | 0 | 0 | 102 | 105 | 86.1

Source: PMC6556873, “Rapid Covalent-Probe Discovery by Electrophile-Fragment Screening” (Journal of the American Chemical Society, 2019)
